Source: patent publication US9133168B2, “Pyrimidine derivatives, preparation thereof, and pharmaceutical use thereof as akt(pkb) phosphorylation inhibitors” (SANOFI, priority 2010, dated 2015)

Test system: AKT protein phosphorylated on serine 473 (P-AKT-S473) in PC3 human prostate carcinoma cells
Test: pAKT expression in PC3 human prostate carcinoma cells, MSD Multi-spot Biomarker detection (Test A)
Assay type: cell-based
Settings: 1 to 2 h incubation, P-AKT-S473, absolute IC50, mean of two independent experiments
How it was run: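 Lysate pAKT-S473 measured by electrochemiluminescent sandwich immunoassay; inhibition versus cell-free background and DMSO-only wells, IC50 averaged over two experiments.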

Row | Structure (SMILES) | IC50 (Homo sapiens, PC-3, PC3 cells) [nM] | IC50 (PC3 cells) [nM]
1 | CC1CN(c2cc(=O)[nH]c(CC(=O)N3CCc4c(F)cccc43)n2)CCO1 (single isomer, unassigned; (+)) [Example 10b, (+)-2-[2-(4-fluoro-2,3-dihydroindol-1-yl)-2-oxoethyl]-6-(2-methylmorpholin-4-yl)-3H-pyrimidin-4-one] | – | 8
2 | O=C(Cc1nc(-c2ccncc2)cc(=O)[nH]1)N1CCc2c(F)cccc21 [Example 12b, 2-[2-(4-fluoro-2,3-dihydroindol-1-yl)-2-oxoethyl]-6-pyridin-4-yl-3H-pyrimidin-4-one] | 370 | –
3 | CCC1CN(c2cc(=O)[nH]c(CC(=O)Nc3ccc(F)cc3)n2)CCO1 (single isomer, unassigned; (+)) [Example 15b, (+)-2-[4-(2-Ethylmorpholin-4-yl)-6-oxo-1,6-dihydropyrimidin-2-yl]-N-(4-fluorophenyl)acetamide] | 105 | –
4 | CC1(C)CN(C(=O)Cc2nc(N3CCOCC3)cc(=O)[nH]2)c2cccc(F)c21 [Example 8c, 2-[2-(4-fluoro-3,3-dimethyl-2,3-dihydro-1H-indol-1-yl)-2-oxoethyl]-6-(morpholin-4-yl)pyrimidin-4(3H)-one] | 52 | –
5 | C[C@@H]1Cc2ccccc2N1C(=O)Cc1nc(N2CCOCC2)c(F)c(=S)[nH]1 [Example 11e, 2-(5-fluoro-4-morpholin-4-yl-6-thioxo-1,6-dihydropyrimidin-2-yl)-1-((R)-2-methyl-2,3-dihydroindol-1-yl)ethanone] | 61 | –
6 | CC(C(=O)N1CCc2c(F)cccc21)c1nc(N2CCOCC2)c(F)c(=O)n1C (stereo not drawn) [Example 2a, 5-fluoro-2-[1-(4-fluoro-2,3-dihydro-1H-indol-1-yl)-1-oxopropan-2-yl]-3-methyl-6-(morpholin-4-yl)pyrimidin-4(3H)-one] | 938 | –
7 | CC1Cc2c(ccc(F)c2F)N1C(=S)Cc1nc(N2CCOCC2)c(F)c(=S)[nH]1 (stereo not drawn) [Example 9e, 2-[2-((+)-4,5-Difluoro-2-methyl-2,3-dihydroindol-1-yl)-2-thioxoethyl]-5-fluoro-6-morpholin-4-yl-3H-pyrimidine-4-thione] | 1 | –
8 | O=C(Cc1nc(N2CCOCC2)cc(=O)[nH]1)N1CC2(CC2)c2ccccc21 [Example 1d, 6-(morpholin-4-yl)-2-[2-oxo-2-(spiro[cyclopropan-1,3′-indol]-1′(2′H)-yl)ethyl]pyrimidin-4(3H)-one] | 26 | –
9 | O=C(Cc1nc(N2CCOCC2)cc(=O)[nH]1)N1CCc2c(OC(F)F)cccc21 [Example 9d, 2-{2-[4-(difluoromethoxy)-2,3-dihydro-1H-indol-1-yl]-2-oxoethyl}-6-(morpholin-4-yl)pyrimidin-4(3H)-one] | 44 | –
10 | O=C(Cc1nc(N2CCOC(CF)C2)cc(=O)[nH]1)N1CCc2c(F)cccc21 (single isomer, unassigned; (+)) [Example 7b, (+)-2-[2-(4-fluoro-2,3-dihydroindol-1-yl)-2-oxoethyl]-6-(2-fluoromethylmorpholin-4-yl)-3H-pyrimidin-4-one] | – | 21
11 | CC1Cc2c(Br)cccc2N1C(=O)Cc1nc(N2CCOCC2)c(F)c(=O)[nH]1 (single isomer, unassigned; (+)) [Example 16a, (+)-2-{2-[4-bromo-2-methyl-2,3-dihydro-1H-indol-1-yl]-2-oxoethyl}-5-fluoro-6-(morpholin-4-yl)pyrimidin-4(3H)-one] | – | 483
12 | CC1Cc2c(F)cccc2N1C(=O)Cc1nc(N2CCOCC2)c(F)c(=O)[nH]1 (stereo not drawn) [Example 11a, 5-fluoro-2-[2-((−)-2-methyl-4-fluoro-2,3-dihydroindol-1-yl)-2-oxoethyl]-6-morpholin-4-yl-3H-pyrimidin-4-one] | – | 24
13 | O=C(Cc1nc(N2CCOCC2)cc(=O)[nH]1)N1CCc2c(-c3ccccc3)cccc21 [Example 2d, 6-(morpholin-4-yl)-2-[2-oxo-2-(4-phenyl-2,3-dihydro-1H-indol-1-yl)ethyl]pyrimidin-4(3H)-one] | 24 | –
14 | O=C(Cc1nc(N2CCOCC2)cc(=O)[nH]1)N1CCc2c(OC(F)(F)F)cccc21 [Example 3d, 6-(morpholin-4-yl)-2-{2-oxo-2-[4-(trifluoromethoxy)-2,3-dihydro-1H-indol-1-yl]ethyl}pyrimidin-4(3H)-one] | 54 | –
15 | CCC1CN(c2cc(=O)[nH]c(CC(=O)Nc3ccc(F)cc3)n2)CCO1 (racemic) [Example 14b, (±)-2-[4-(2-ethylmorpholin-4-yl)-6-oxo-1,6-dihydropyrimidin-2-yl]-N-(4-fluorophenyl)acetamide] | 280 | –

More lines, now with the values ahead:

Row | IC50 (Homo sapiens, PC-3, PC3 cells) [nM] | IC50 (PC3 cells) [nM] | Structure (SMILES)
16 | 568 | – | O=C(Cc1nc(N2CCOCC2)c(F)c(=O)[nH]1)N1c2ccccc2C[C@H]1CO [Example 39a, 5-Fluoro-2-[2-((−)-2-hydroxymethyl-2,3-dihydroindol-1-yl)-2-oxoethyl]-6-morpholin-4-yl-3H-pyrimidin-4-one]
17 | – | 45 | CC1Cc2c(Br)cccc2N1C(=O)Cc1nc(N2CCOCC2)c(F)c(=O)[nH]1 (single isomer, unassigned; (-)) [Example 17a, (−)-2-{2-[4-bromo-2-methyl-2,3-dihydro-1H-indol-1-yl]-2-oxoethyl}-5-fluoro-6-(morpholin-4-yl)pyrimidin-4(3H)-one]
18 | – | 14 | CC1Cc2c(Br)cccc2N1C(=O)Cc1nc(N2CCOCC2)cc(=O)n1C (single isomer, unassigned; (-)) [Example 32c, (−)-2-{2-[4-bromo-2-methyl-2,3-dihydro-1H-indol-1-yl]-2-oxoethyl}-3-methyl-6-(morpholin-4-yl)pyrimidin-4(3H)-one]
19 | 131 | – | Nn1c(CC(=O)N2CCc3ccccc32)nc(N2CCOCC2)cc1=O [Example 41d, 3-amino-2-[2-(2,3-dihydro-1H-indol-1-yl)-2-oxoethyl]-6-(morpholin-4-yl)pyrimidin-4(3H)-one]
20 | – | 167 | CC1Cc2c(OC(F)F)cccc2N1C(=O)Cc1nc(N2CCOCC2)cc(=O)n1C (single isomer, unassigned; (+)) [Example 31d, (+)-2-{2-[4-(difluoromethoxy)-2-methyl-2,3-dihydro-1H-indol-1-yl]-2-oxoethyl}-3-methyl-6-(morpholin-4-yl)pyrimidin-4(3H)-one]
21 | 140 | – | CC(F)(C(=O)N1CCc2c(F)cccc21)c1nc(N2CCOCC2)cc(=O)[nH]1 (single isomer, unassigned; (-)) [Example 44c, (−)-2-[2-fluoro-1-(4-fluoro-2,3-dihydro-1H-indol-1-yl)-1-oxopropan-2-yl]-6-(morpholin-4-yl)pyrimidin-4(3H)-one]
22 | 243 | – | CC(C)[C@@H]1Cc2ccccc2N1C(=O)Cc1nc(N2CCOCC2)cc(=O)[nH]1 [Example 40c, (+)-2-[2-(2-isopropyl-2,3-dihydroindol-1-yl)-2-oxoethyl]-6-morpholin-4-yl-3H-pyrimidin-4-one]
23 | – | 15 | CC1Cc2c(ccc(F)c2F)N1C(=O)Cc1nc(N2CCOCC2)c(F)c(=O)[nH]1 (stereo not drawn) [Example 21a, 2-[2-((+)-4,5-difluoro-2-methyl-2,3-dihydroindol-1-yl)-2-oxoethyl]-5-fluoro-6-morpholin-4-yl-3H-pyrimidin-4-one]
24 | – | 32 | CC1Cc2cc(F)c(F)cc2N1C(=O)Cc1nc(N2CCOCC2)cc(=O)n1C (stereo not drawn) [Example 23c, 2-{2-[(−)-5,6-difluoro-2-methyl-2,3-dihydro-1H-indol-1-yl]-2-oxoethyl}-3-methyl-6-(morpholin-4-yl)pyrimidin-4(3H)-one]
25 | – | 5 | O=C(Cc1nc(N2CCOCC2)cc(=O)[nH]1)N1c2ccccc2CC1C1CC1 (single isomer, unassigned; (-)) [Example 35d, (−)-2-[2-(2-cyclopropyl-2,3-dihydroindol-1-yl)-2-oxoethyl]-6-morpholin-4-yl-3H-pyrimidin-4-one]
26 | 106 | – | Cn1c(CC(=O)N2CC3(CCOCC3)c3ccccc32)nc(N2CCOCC2)cc1=O [Example 22d, 3-methyl-6-(morpholin-4-yl)-2-[2-oxo-2-(2′,3′,5′,6′-tetrahydrospiro[indole-3,4′-pyran]-1(2H)-yl)ethyl]pyrimidin-4(3H)-one]
27 | – | 27 | CC1Cc2ccc(F)cc2N1C(=O)Cc1nc(N2CCOCC2)cc(=O)[nH]1 (stereo not drawn) [Example 35c, 2-{2-[(+)-6-fluoro-2-methyl-2,3-dihydro-1H-indol-1-yl]-2-oxoethyl}-6-(morpholin-4-yl)pyrimidin-4(3H)-one]
28 | 15 | – | O=C(Cc1nc(N2CCOCC2)cc(=O)[nH]1)N1c2ccccc2CC1CF (stereo not drawn) [Example 38d, 2-[2-((+)-2-Fluoromethyl-2,3-dihydroindol-1-yl)-2-oxoethyl]-6-morpholin-4-yl-3H-pyrimidin-4-one]
29 | – | 7 | CC1Cc2c(ccc(F)c2Cl)N1C(=O)Cc1nc(N2CCOCC2)cc(=O)[nH]1 (single isomer, unassigned; (+)) [Example 37c, (+)-2-{2-[4-chloro-5-fluoro-2-methyl-2,3-dihydro-1H-indol-1-yl]-2-oxoethyl}-6-(morpholin-4-yl)pyrimidin-4(3H)-one]
30 | – | 5 | CC1Cc2c(cccc2C(F)(F)F)N1C(=O)Cc1nc(N2CCOCC2)cc(=O)[nH]1 (single isomer, unassigned; (+)) [Example 36d, (+)-2-{2-[2-methyl-4-(trifluoromethyl)-2,3-dihydro-1H-indol-1-yl]-2-oxoethyl}-6-(morpholin-4-yl)pyrimidin-4(3H)-one]
31 | – | 17 | CC1Cc2cc(F)c(F)cc2N1C(=O)Cc1nc(N2CCOCC2)cc(=O)[nH]1 (stereo not drawn) [Example 21c, 2-{2-[(+)-5,6-difluoro-2-methyl-2,3-dihydro-1H-indol-1-yl]-2-oxoethyl}-6-(morpholin-4-yl)pyrimidin-4(3H)-one]
32 | – | 9 | CC1Cc2ccccc2N1C(=O)Cc1nc(N2CCOCC2)cc(=O)[nH]1 (single isomer, unassigned; (-)) [Example 22b, (−)-2-[2-(2-methyl-2,3-dihydroindol-1-yl)-2-oxoethyl]-6-morpholin(D8)-4-yl-3H-pyrimidin-4-one]
33 | – | 270 | CC1Cc2cc(F)c(F)cc2N1C(=O)Cc1nc(N2CCOCC2)c(F)c(=O)n1C (stereo not drawn) [Example 27a, 5-fluoro-2-[2-((−)-5,6-difluoro-2-methyl-2,3-dihydroindol-1-yl)-2-oxoethyl]-3-methyl-6-morpholin-4-yl-3H-pyrimidin-4-one]
